Reference: patent US20090093423A2, “NOVEL 2-SUBSTITUTED METHYL PENAM DERIVATIVES” (Orchid Chemicals and Pharmaceuticals Limited, priority 2006, published 2009)

Tests used:
A. baumani MRO 14512 = assay: MIC, Agar Dilution Method, resistant clinical isolate; assay type: cell-based
Description: (§1) The novel compounds were tested for the in vitro antibacterial activities by the Agar Dilution Method as specified in documents published by NCCLS, now CLSI, USA. (National Committee for Clinical Laboratory Standards (NCCLS). 2003. Approved standard M7-A6. NCCLS, Villanova, Pa.).
(§2) Tazo was also dissolved in same buffer to get a solution of, e.g., 1 mg/mL. Novel penam derivatives described herein were dissolved in water to get a solution of, e.g., 1 mg/mL.
(§3) The novel compounds and Tazo were also tested individually. The bacterial inoculum was prepared by picking 3 to 5 well-isolated bacterial colonies with the same morphological appearance from an 18-24 h old culture and adjusting the turbidity of the saline suspension to 0.5 McFarland Turbidity Standard equivalent to a bacterial population of 1.5×10^8 colony forming units (CFU) per mL of suspension. The suspension was diluted 1:10 in saline (i.e. 0.5 mL suspension+4.5 mL saline) to get a bacterial population of 1.5×10^7 CFU/mL as inoculum. […] The inoculated petridishes were incubated at 35° C. in an ambient atmosphere for 16-20 h.

A. baumani MRO 14514 = assay: as above; assay type: cell-based
Description: as §1, §2, §3

A. baumani MRO 14515 = assay: as above; assay type: cell-based
Description: as §1, §2, §3

E. coli MRO 10135 = assay: as above; assay type: cell-based
Description: as §1, §2, §3

[1] = test system: strains resistant to Fluoroquinolones; conditions: Kriengkauykiat et al. 2005; cited from earlier work
[2] = test system: K. pneumoniae ATCC 700603; assay: MIC, Agar Dilution Method; assay type: cell-based; conditions: K. pneumoniae 700603, SHV-18
Description: as §1, §2, §3

K. pneumoniae MRO 11008 [3] = assay: MIC, Agar Dilution Method; assay type: cell-based; conditions: ESBL producing K. pneumoniae strain; inhibitor 1 μg/mL
Description: as §1, §2, §3

E. coli BAA-196 (TEM-10) = assay: MIC, Agar Dilution Method, ESBL producing ATCC isolate; assay type: cell-based; conditions: inhibitor 4 μg/mL
Description: as §1, §2, §3

E. coli BAA-197 (TEM-12) = assay: as above; assay type: cell-based; conditions: inhibitor 4 μg/mL
Description: as §1, §2, §3

E. coli BAA-198 (TEM-26) = assay: as above; assay type: cell-based
Description: as §1, §2, §3

E. coli BAA-199 (SHV-3) = assay: as above; assay type: cell-based
Description: as §1, §2, §3

E. coli BAA-200 (SHV-4) = assay: as above; assay type: cell-based; conditions: for potentiation of Piperacillin compared to Tazo: SHV-4 ESBL producing strain
Description: as §1, §2, §3

E. coli BAA-201 (TEM-3) = assay: as above; assay type: cell-based
Description: as §1, §2, §3

E. coli BAA-202 (SHV-1) = assay: as above; assay type: cell-based
Description: as §1, §2, §3

[4] = test system: K. pneumoniae 51503 (TEM-10 & -12); assay: as above; assay type: cell-based; conditions: inhibitor 4 μg/mL
Description: as §1, §2, §3

[5] = test system: P. mirabilis BAA-663 (TEM-89); assay: as above; assay type: cell-based
Description: as §1, §2, §3

Penicillinase enzyme = assay: β-Lactamase assay (Centa substrate); assay type: biochemical; conditions: FIG. 1
Description: Representative novel compounds were subjected to β-lactamase assay to determine and compare their IC50 with that of Tazo as described elsewhere (Bebrone et. al, 2001, Antimicrob. Agents. Chemother. 45(6): 1868-1871; Jamieson et. al, 2003, Antimicrob. Agents. Chemother. 47(5): 1652-1657). Briefly enzyme inhibition assays with Tazo acid as the standard inhibitor for % inhibitions & IC50 value with optimized concentrations of Penicillinase enzyme & Centa β-lactamase substrate were performed.

[6] = Minimum bactericidal studies, broth macrodilution; assay type: cell-based
Description: Minimum bactericidal studies were performed by broth macrodilution technique as described by NCCLS.

[7] = Intravenous pharmacokinetics in mice; assay type: in vivo, Swiss mice
Source text: Blood samples were collected at different time points. These samples were processed and analyzed by HPLC.

[8] = Possibility of conversion of Example 1 to Tazo, LC-MS/MS of plasma; assay type: in vivo; conditions: Swiss mice, 8 mg/kg along with Piperacillin (32 mg/kg)
Description: Blood samples were collected at different time points. These samples were processed and analyzed by LC-MS/MS, which has the capability of simultaneously detecting even the lower concentration of Tazo (20 ng/mL) and the compound obtained from Example 1 (10 ng/mL).

[9] = test system: strains producing the TEM type ESBLs (TEM-10, TEM-12 and TEM-10 and -12); assay: MIC, Agar Dilution Method, TEM panel; assay type: cell-based; conditions: TEM-10, TEM-12 and TEM-10 and -12 strains; inhibitor 1 μg/mL and 2 μg/mL
Description: as §1, §2, §3

[10] = test system: strains resistant to Ceftazidime, Ciprofloxacin, and Piperacillin/Tazo combination; assay: MIC, Agar Dilution Method, resistant panel; assay type: cell-based
Description: as §1, §2, §3

E. coli MRO 10006 = assay: In vivo efficacy, infected mice; conditions: Swiss albino mice infected with E. coli MRO 10006; Piperacillin:inhibitor 4:1; 7-day survival
Description: (§4) The efficacy studies were performed as described earlier (Kuck et al, 1989, Antimicrob. Agents. Chemother. 33(11): 1964-1969). Briefly, Swiss albino mice, 20+2 g, from in-house breeding facility were challenged by the intraperitoneal injection of bacterial suspensions in 0.5 mL of hog gastric mucin (10 to 100 50% lethal doses). […] All the untreated control animals died within 48 h of infection. In each experiment, in-house Tazo was used as an inhibitor control in four doses. Median (50%) effective dose (ED50) were determined by applying the Reed and Muench's method of the 7-day survival ratios.

E. coli MRO 10007 = assay: In vivo efficacy, infected mice; conditions: Swiss albino mice infected with E. coli MRO 10007; Piperacillin:inhibitor 4:1; 7-day survival
Description: as §4

[11] = test system: ESBL producing E. coli strains; assay: In vivo efficacy, infected mice
Description: as §4

K. pneumoniae MRO 11008 [12] = assay: In vivo efficacy, infected mice
Description: as §4

SMILES: CC(C)(O/N=C(\C(=O)N[C@@H]1C(=O)N2C(C(=O)[O-])=C(C[n+]3ccccc3)CS[C@H]12)c1csc(N)n1)C(=O)O [Ceftazidime]
- MIC (antibiotic alone) (A. baumani MRO 14512): >64 mg/L
- MIC (antibiotic alone) (A. baumani MRO 14514): >64 mg/L
- MIC (antibiotic alone) (A. baumani MRO 14515): >64 mg/L
- MIC (antibiotic alone) (E. coli MRO 10135): >64 mg/L
- cross-resistance of strains resistant to Fluoroquinolones [1]: 76%

SMILES: C[n+]1ccn(C[C@@]2(C)[C@H](C(=O)[O-])N3C(=O)C[C@H]3S2(=O)=O)n1 [Example 1, 1-{[(2S,3S,5R)-2-Carboxy-3-methyl-4,4,7-trioxo-4-thia-1-azabicyclo[3.2.0]hept-3-yl]methyl}-3-methyl-1H-1,2,3-triazol-3-ium]
- MIC of Piperacillin with different concentrations of Tazo or compound of Example 1 ([2]; inhibitor 2 μg/mL): 16 mg/L
- MIC of Piperacillin with different concentrations of Tazo or compound of Example 1 ([2]; inhibitor 4 μg/mL): 16 mg/L
- in vitro potentiation of Piperacillin (K. pneumoniae MRO 11008 [3]): 16 fold
- MIC of Piperacillin with different concentrations of Tazo or compound of Example 1 (E. coli BAA-196 (TEM-10)): 4 mg/L
- MIC of Piperacillin with different concentrations of Tazo or compound of Example 1 (E. coli BAA-197 (TEM-12)): 4 mg/L
- MIC of Piperacillin with different concentrations of Tazo or compound of Example 1 (E. coli BAA-198 (TEM-26); inhibitor 1 μg/mL): 4 mg/L
- MIC of Piperacillin with different concentrations of Tazo or compound of Example 1 (E. coli BAA-198 (TEM-26); inhibitor 2 μg/mL): 4 mg/L
- MIC of Piperacillin with different concentrations of Tazo or compound of Example 1 (E. coli BAA-198 (TEM-26); inhibitor 4 μg/mL): 2 mg/L
- potentiation of Piperacillin compared to Tazo (E. coli BAA-199 (SHV-3); SHV-3 ESBL producing strain, inhibitor 1 μg/mL): > 16 fold
- potentiation of Piperacillin compared to Tazo (E. coli BAA-199 (SHV-3); SHV-3 ESBL producing strain, inhibitor 2 μg/mL): > 32 fold
- potentiation of Piperacillin compared to Tazo (in words) (E. coli BAA-199 (SHV-3); SHV-3 producing strain as printed (second mention), inhibitor 4 μg/mL): comparable with Tazo
- potentiation of Piperacillin compared to Tazo (E. coli BAA-199 (SHV-3); SHV-3 producing strain, inhibitor 4 μg/mL): > 64 fold
- MIC of Piperacillin with different concentrations of Tazo or compound of Example 1 (E. coli BAA-200 (SHV-4); E. coli BAA-200, SHV-4, inhibitor 4 μg/mL): 2 mg/L
- potentiation of Piperacillin compared to Tazo (E. coli BAA-200 (SHV-4); inhibitor 1 μg/mL): > 16 fold
- potentiation of Piperacillin compared to Tazo (E. coli BAA-200 (SHV-4); inhibitor 2 μg/mL): > 32 fold
- MIC of Piperacillin with different concentrations of Tazo or compound of Example 1 (E. coli BAA-201 (TEM-3); inhibitor 1 μg/mL): 4 mg/L
- MIC of Piperacillin with different concentrations of Tazo or compound of Example 1 (E. coli BAA-201 (TEM-3); inhibitor 2 μg/mL): 2 mg/L
- MIC of Piperacillin with different concentrations of Tazo or compound of Example 1 (E. coli BAA-201 (TEM-3); inhibitor 4 μg/mL): 2 mg/L
- MIC of Piperacillin with different concentrations of Tazo or compound of Example 1 (E. coli BAA-202 (SHV-1); inhibitor 1 μg/mL): >128 mg/L
- MIC of Piperacillin with different concentrations of Tazo or compound of Example 1 (E. coli BAA-202 (SHV-1); inhibitor 2 μg/mL): >128 mg/L
- MIC of Piperacillin with different concentrations of Tazo or compound of Example 1 (E. coli BAA-202 (SHV-1); inhibitor 4 μg/mL): >128 mg/L
- MIC of Piperacillin with different concentrations of Tazo or compound of Example 1 [4]: 8 mg/L
- MIC of Piperacillin with different concentrations of Tazo or compound of Example 1 ([5]; inhibitor 1 μg/mL): 16 mg/L
- MIC of Piperacillin with different concentrations of Tazo or compound of Example 1 ([5]; inhibitor 2 μg/mL): 8 mg/L
- MIC of Piperacillin with different concentrations of Tazo or compound of Example 1 ([5]; inhibitor 4 μg/mL): 8 mg/L
- MIC of Piperacillin in combination with 4 μg/mL inhibitor (A. baumani MRO 14512; Pip + 4 μg/mL inhibitor): 4 mg/L
- MIC of Piperacillin in combination with 4 μg/mL inhibitor (A. baumani MRO 14514; Pip + 4 μg/mL inhibitor): 32 mg/L
- MIC of Piperacillin in combination with 4 μg/mL inhibitor (A. baumani MRO 14515; Pip + 4 μg/mL inhibitor): 32 mg/L
- MIC of Piperacillin in combination with 4 μg/mL inhibitor (E. coli MRO 10135; Pip + 4 μg/mL inhibitor): 16 mg/L
- IC50 compared with Tazo (Penicillinase enzyme): three-fold lower
- Minimum bactericidal concentration study, Piperacillin in combination with inhibitor [6]: bacteriostatic
- C0 ([7]; Swiss, mouse, in vivo, iv, 8 mg/kg): 15.2 µg/mL
- AUC(0-t) ([7]; Swiss, mouse, in vivo, iv, 8 mg/kg, read-out: AUC0-4 h): 5.37 µg·h/mL
- AUC ([7]; Swiss, mouse, in vivo, iv, 8 mg/kg, read-out: AUC0-∝): 5.83 µg·h/mL
- half-life ([7]; Swiss, mouse, in vivo, iv, 8 mg/kg, read-out: Elimination half-life (converted)): 16.3 min
- systemic exposure ([7]; mice, intravenous, compared with Tazo): higher than that of Tazo
- conversion to Tazo after intravenous administration (LC-MS/MS of plasma) [8]: did not get converted to Tazo
- potentiation of Piperacillin compared to Tazo [9]: 2-16 fold
- potentiated the antibacterial activity of Piperacillin compared to that of Tazo ([10]; inhibitor 4 μg/mL, strains resistant to Ceftazidime and Ciprofloxacin): 2-16 fold
- susceptibility of resistant strains to Piperacillin in combination ([10]; strains resistant to Ceftazidime, Ciprofloxacin, and Piperacillin/Tazo combination): susceptible
- ED50 of Piperacillin in combination with inhibitor (E. coli MRO 10006): 22.62 mg/kg b.w.
- ED50 of Piperacillin in combination with inhibitor (E. coli MRO 10007): 24.88 mg/kg b.w.
- ED50 of Piperacillin in combination, compared to that in combination with Tazo [11]: two-fold lower
- ED50 of Piperacillin in combination with inhibitor (K. pneumoniae MRO 11008 [12]; Swiss albino mice infected with K. pneumoniae MRO 11008, Piperacillin:inhibitor 4:1, 7-day survival): 34.89 mg/kg b.w.
- increase of efficacy of Piperacillin (K. pneumoniae MRO 11008 [12]; mice, ESBL producing K. pneumoniae strain resistant in vitro to Piperacillin with 1 μg/mL Tazo): three-fold

SMILES: CC[n+]1ccn(C[C@@]2(C)[C@H](C(=O)[O-])N3C(=O)C[C@H]3S2(=O)=O)n1 [Example 2, 1-{[(2S,3S,5R)-2-Carboxy-3-methyl-4,4,7-trioxo-4-thia-1-azabicyclo[3.2.0]hept-3-yl]methyl}-3-ethyl-1H-1,2,3-triazol-3-ium]
- IC50 compared with Tazo (Penicillinase enzyme): three-fold lower
